Measured values: ChEMBL document CHEMBL4483862, “Open-source discovery of chemical leads for next-generation chemoprotective antimalarials” (2018)

System: Plasmodium berghei
Assay: Luciferase/luciferin-expressing antifolate-resistant parasites were used to infect a culture of HepG2 cells that were pre-incubated with compounds. Infected hepatocytes emit light due to the luciferase reaction. Assay results are presented as the percent inhibition of light emission compared to control. […]
Type: functional
Conditions: sporozoite; for IC90: read-out: LUCIFERASE INFECTION ASSAY - IC90
[1] = read-out: LUCIFERASE INFECTION ASSAY - IC50

| Compound | IC90 | IC50 [1] | also measured |
| --- | --- | --- | --- |
| CC(=O)N(/N=C/c1ccc(F)cc1)C1=NN(C(C)=O)C(c2ccc(F)cc2)S1 (stereo not given) | > 8.2 µM | – | IC50 (HEPG2TOX_HILL_SLOPE 7.43, HEPG2TOX_R_SQUARED 0.382, read-out: LUCIFERASE INFECTION ASSAY - IC50): > 8.2 µM |
| Cc1nn(Cc2ccccc2Cl)c2sc(C(=O)NC3CCN(Cc4ccccc4)CC3)cc12 | > 10 µM | > 10 µM | – |
| O=C1OC(C23CC4CC(CC(C4)C2)C3)=N/C1=C\c1ccc(N2CCOCC2)cc1 | > 10 µM | > 10 µM | – |
| COC(=O)c1cccc(C(=O)Nc2nccn2Cc2ccccc2)c1 | 9.3 µM | – | IC50 (PBLUC_HILL_SLOPE 5.71, PBLUC_R_SQUARED 0.673, read-out: LUCIFERASE INFECTION ASSAY - IC50): 6.33 µM |
| O=c1c(Cl)c2[nH]c3ccccc3nc-2c2ccccc12 | > 11.8 µM | > 11.8 µM | – |
| Cc1c(C2=CCCCC2)c2ccccn2c1C(=O)c1cc2c(C)nn(-c3ccccc3)c2s1 | > 10 µM | > 10 µM | – |
| CC(=O)Nc1ccc(-c2cnc3ccc(-c4cccnc4)nn23)cc1 | 1.22 µM | 0.572 µM | – |
| CCCNC(=O)c1c(NC(=O)c2cc(F)cc(F)c2)nc2ccccn12 | 2.45 µM | – | IC50 (FFLUC_HILL_SLOPE 41.4, FFLUC_R_SQUARED 0.343, HEPG2TOX_HILL_SLOPE 1.12, HEPG2TOX_R_SQUARED 0.682, PBLUC_HILL_SLOPE 5.41, PBLUC_R_SQUARED 0.415, read-out: LUCIFERASE INFECTION ASSAY - IC50): 1.63 µM |
| COc1ccc(NS(=O)(=O)c2c(C)c(C)c(C)c(C)c2C)cc1O | 3.8 µM | – | IC50 (FFLUC_HILL_SLOPE 1.05, FFLUC_R_SQUARED 0.782, HEPG2TOX_HILL_SLOPE 1.26, HEPG2TOX_R_SQUARED 0.985, PBLUC_HILL_SLOPE 23, PBLUC_R_SQUARED 0.188, read-out: LUCIFERASE INFECTION ASSAY - IC50): 3.45 µM |
| CN(C(=O)Cn1nnc(-c2cccc(C(F)(F)F)c2)n1)C1(C#N)CCCCC1 | > 10 µM | > 10 µM | – |
| Cc1cc(C)c(CSCCNC(=O)Nc2ccccc2)c(C)c1 | > 10 µM | – | IC50 (PBLUC_HILL_SLOPE 3.02, PBLUC_R_SQUARED 0.314, read-out: LUCIFERASE INFECTION ASSAY - IC50): 4.91 µM |
| N#CC(=C1SCCCCS1)S(=O)(=O)c1ccccc1 | > 10.6 µM | > 10.6 µM | – |
| CCOC(=O)c1sc2nc(CSc3ccccc3)nc(NCC(O)CN(C)C)c2c1C (stereo not given) | > 10 µM | – | IC50 (HEPG2TOX_HILL_SLOPE 7.33, HEPG2TOX_R_SQUARED 0.474, PBLUC_HILL_SLOPE 9.13, PBLUC_R_SQUARED 0.72, read-out: LUCIFERASE INFECTION ASSAY - IC50): 9.05 µM |
| Cc1ccn2cc(C(=O)N3CCN(Cc4ccc(C(F)(F)F)cc4)CC3)nc2c1 | 3.77 µM | – | IC50 (HEPG2TOX_HILL_SLOPE 2.22, HEPG2TOX_R_SQUARED 0.687, PBLUC_HILL_SLOPE 18.4, PBLUC_R_SQUARED 0.747, read-out: LUCIFERASE INFECTION ASSAY - IC50): 3.35 µM |
| Cn1nc(-c2ccc(/C=N/NC(=O)c3ccc(Cl)cc3)s2)cc1C(F)(F)F | 3.23 µM | – | IC50 (HEPG2TOX_HILL_SLOPE 12, HEPG2TOX_R_SQUARED 0.148, PBLUC_HILL_SLOPE 12.7, PBLUC_R_SQUARED 0.63, read-out: LUCIFERASE INFECTION ASSAY - IC50): 2.72 µM |
| CCN1CCC[C@H]1CNC(=O)C(C)c1ccc2c(c1)[nH]c1ccc(Cl)cc12 (stereo not given in full) | 5.54 µM | – | IC50 (HEPG2TOX_HILL_SLOPE 11.5, HEPG2TOX_R_SQUARED 0.93, PBLUC_HILL_SLOPE 6.18, PBLUC_R_SQUARED 0.807, read-out: LUCIFERASE INFECTION ASSAY - IC50): 3.88 µM |
| O=C(COc1ccc(Cl)cc1Br)c1ccc[nH]1 | > 10 µM | – | IC50 (FFLUC_HILL_SLOPE 12.1, FFLUC_R_SQUARED 0.341, HEPG2TOX_HILL_SLOPE 8.8, HEPG2TOX_R_SQUARED 0.689, read-out: LUCIFERASE INFECTION ASSAY - IC50): > 10 µM |
| COc1ccccc1-c1ccc2ncc(-c3cccc(NC(C)=O)c3)n2n1 | > 10 µM | – | IC50 (HEPG2TOX_HILL_SLOPE 1.56, HEPG2TOX_R_SQUARED 0.888, PBLUC_HILL_SLOPE 1.15, PBLUC_R_SQUARED 0.442, read-out: LUCIFERASE INFECTION ASSAY - IC50): 4.22 µM |
| Cn1c(CC(=O)NNC(=O)c2ccccc2Nc2ccccc2)nc2ccccc21 | 3.3 µM | – | IC50 (HEPG2TOX_HILL_SLOPE 1.15, HEPG2TOX_R_SQUARED 0.894, PBLUC_HILL_SLOPE 16.3, PBLUC_R_SQUARED 0.746, read-out: LUCIFERASE INFECTION ASSAY - IC50): 2.88 µM |
| Cc1cc(C)cc(NC(=O)C(Sc2nc(=O)cc(N)[nH]2)c2ccccc2)c1 (stereo not given) | > 10 µM | > 10 µM | – |

| Compound | IC90 | IC50 [1] | also measured |
| --- | --- | --- | --- |
| O=C(Nc1nc(CN2CCOCC2)cs1)c1ccc(-c2ccc(Cl)cc2)s1 | > 10 µM | – | IC50 (HEPG2TOX_HILL_SLOPE 0.481, HEPG2TOX_R_SQUARED 0.864, PBLUC_HILL_SLOPE 0.848, PBLUC_R_SQUARED 0.477, read-out: LUCIFERASE INFECTION ASSAY - IC50): 0.826 µM |
| COc1ccccc1Nc1ncccc1C(=O)Nc1nc2ccccc2[nH]1 | 3.78 µM | – | IC50 (HEPG2TOX_HILL_SLOPE 3.87, HEPG2TOX_R_SQUARED 0.988, PBLUC_HILL_SLOPE 17.6, PBLUC_R_SQUARED 0.638, read-out: LUCIFERASE INFECTION ASSAY - IC50): 3.34 µM |
| O=C(O)c1c2c(nc3ccccc13)/C(=C/c1ccc(OC(F)F)cc1)CC2 | > 10 µM | – | IC50 (PBLUC_HILL_SLOPE 0.722, PBLUC_R_SQUARED 0.387, read-out: LUCIFERASE INFECTION ASSAY - IC50): 5.43 µM |
| Cc1cc(C)c(S(=O)(=O)N(Cc2cccc3ccccc23)c2c(C)n(C)n(-c3ccccc3)c2=O)c(C)c1 | 9.71 µM | – | IC50 (HEPG2TOX_HILL_SLOPE 7.62, HEPG2TOX_R_SQUARED 0.586, PBLUC_HILL_SLOPE 20.2, PBLUC_R_SQUARED 0.47, read-out: LUCIFERASE INFECTION ASSAY - IC50): 8.71 µM |
| O=C1C=CC(=O)N1c1ccccc1OC(F)(F)F | > 12.8 µM | – | IC50 (FFLUC_HILL_SLOPE 21.4, FFLUC_R_SQUARED 0.595, PBLUC_HILL_SLOPE 3.16, PBLUC_R_SQUARED 0.111, read-out: LUCIFERASE INFECTION ASSAY - IC50): 8.21 µM |
| Cc1noc(C)c1COc1ccc(C(=O)NNc2c(Cl)cc(Cl)cc2Cl)cc1 | > 10 µM | > 10 µM | – |
| Fc1cccc(-c2cc3c(Nc4ccccn4)nccc3[nH]2)c1 | 9.13 µM | – | IC50 (HEPG2TOX_HILL_SLOPE 13.8, HEPG2TOX_R_SQUARED 0.872, PBLUC_HILL_SLOPE 30.4, PBLUC_R_SQUARED 0.0497, read-out: LUCIFERASE INFECTION ASSAY - IC50): 8.5 µM |
| CC1CCCCC1NC(=O)/C(C#N)=C/c1ccc(OC(F)F)cc1OC(F)F (stereo not given) | > 10 µM | > 10 µM | – |
| O=C(COc1cc(N2CCCC2=O)ccc1[N+](=O)[O-])NCc1ccco1 | > 10 µM | > 10 µM | – |
| O=C(c1cc2ccccc2cc1O)N1CCN(Cc2ccc3c(c2)OCO3)CC1 | 8.06 µM | – | IC50 (HEPG2TOX_HILL_SLOPE 11.9, HEPG2TOX_R_SQUARED 0.324, PBLUC_HILL_SLOPE 2.98, 3.06, PBLUC_R_SQUARED 0.831, 0.940, read-out: LUCIFERASE INFECTION ASSAY - IC50): 4.38 µM |
| OCc1ccc(-c2cnc3ccc(-c4ccc(F)cc4)nn23)cc1 | 5.21 µM | – | IC50 (HEPG2TOX_HILL_SLOPE 1.97, HEPG2TOX_R_SQUARED 0.914, PBLUC_HILL_SLOPE 1.12, PBLUC_R_SQUARED 0.781, read-out: LUCIFERASE INFECTION ASSAY - IC50): 0.738 µM |
| O=C(Nc1ccc2c(c1)OCO2)C1CCN(C(C(=O)c2c[nH]c3ccccc23)c2ccccc2)CC1 (stereo not given) | > 10 µM | – | IC50 (FFLUC_HILL_SLOPE 60.7, FFLUC_R_SQUARED 0.292, PBLUC_HILL_SLOPE 4.02, PBLUC_R_SQUARED 0.0454, read-out: LUCIFERASE INFECTION ASSAY - IC50): 7.8 µM |
| Cc1sc2ncnc(Sc3nc4ncccn4n3)c2c1C | > 2 µM | > 2 µM | – |
| COc1cccc(-c2nc(CSc3nc4ccccc4c(=O)n3C)cs2)c1 | 3.7 µM | – | IC50 (FFLUC_HILL_SLOPE 18, FFLUC_R_SQUARED 0.516, HEPG2TOX_HILL_SLOPE 5.55, HEPG2TOX_R_SQUARED 0.861, PBLUC_HILL_SLOPE 17.5, PBLUC_R_SQUARED 0.299, read-out: LUCIFERASE INFECTION ASSAY - IC50): 3.27 µM |
| COc1ccc(C2c3ccsc3CCN2S(=O)(=O)c2ccc(F)c(Cl)c2)cc1 (stereo not given) | > 7.54 µM | – | IC50 (PBLUC_HILL_SLOPE 1.37, PBLUC_R_SQUARED 0.631, read-out: LUCIFERASE INFECTION ASSAY - IC50): 3.09 µM |
| CC(NC(=O)c1cc(-c2ccc3c(c2)OCCO3)nc2c1cnn2C(C)C)c1nc2ccccc2[nH]1 (stereo not given) | > 10 µM | – | IC50 (PBLUC_HILL_SLOPE 1.49, PBLUC_R_SQUARED 0.0633, read-out: LUCIFERASE INFECTION ASSAY - IC50): > 10 µM |
| COc1ccc(Nc2ccn3ncc(-c4ccc(N(C)C)cc4)c3n2)cn1 | 5.31 µM | – | IC50 (HEPG2TOX_HILL_SLOPE 7.66, HEPG2TOX_R_SQUARED 0.327, PBLUC_HILL_SLOPE 65.7, PBLUC_R_SQUARED 0.275, read-out: LUCIFERASE INFECTION ASSAY - IC50): 5.14 µM |
| O=C(NCc1ccc(N2CCCCC2)nc1)c1cccc2c[nH]nc12 | > 10 µM | > 10 µM | – |
| O=C(NCc1ccc(Cn2ccnc2)cc1)c1csc(-c2cccs2)n1 | > 10 µM | – | IC50 (PBLUC_HILL_SLOPE 1.64, PBLUC_R_SQUARED 0.565, read-out: LUCIFERASE INFECTION ASSAY - IC50): 6.98 µM |
| C=CCNC(=O)CSC1=CC(=O)CC(c2ccc(Cl)cc2)S1 (stereo not given) | > 9.32 µM | > 9.32 µM | – |
